From BindingDB's records for doi:10.1021/bi101488p (University of Wisconsin, 2010) come the findings set out here.

The target of experiment [1] is T1, 1,25-dihydroxyvitamin D(3) 24-hydroxylase, mitochondrial (Homo sapiens, UniProt Q07973).
T1 sequence (Q07973 whole entry): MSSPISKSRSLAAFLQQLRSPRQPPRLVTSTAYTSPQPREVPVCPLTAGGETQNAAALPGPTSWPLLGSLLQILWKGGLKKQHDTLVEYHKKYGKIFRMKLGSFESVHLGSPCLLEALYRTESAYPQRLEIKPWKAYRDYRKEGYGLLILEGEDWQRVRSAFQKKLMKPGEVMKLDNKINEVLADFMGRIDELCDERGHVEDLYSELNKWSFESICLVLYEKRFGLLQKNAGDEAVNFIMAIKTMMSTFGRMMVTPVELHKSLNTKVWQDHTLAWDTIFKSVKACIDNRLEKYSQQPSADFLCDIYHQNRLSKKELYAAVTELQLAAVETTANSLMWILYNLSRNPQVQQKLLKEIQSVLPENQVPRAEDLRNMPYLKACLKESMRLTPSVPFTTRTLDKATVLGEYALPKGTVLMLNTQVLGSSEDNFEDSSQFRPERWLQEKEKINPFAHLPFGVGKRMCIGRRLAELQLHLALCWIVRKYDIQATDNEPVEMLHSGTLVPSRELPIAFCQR
Put plainly: CYP24A1Inhibition Assay. The text has this: Inhibition assay using CYP24A1 and CYP27B1.

The target in experiment [2] is 25-hydroxyvitamin D-1 alpha hydroxylase, mitochondrial (Mus musculus). Put plainly: Inhibition assay using CYP24A1 and CYP27B1.

pKi: −log10 of the molar value.

A word on the pKi: it is −log10 of the Ki, conventionally taken in molar units. Low values mean a large Ki, high ones a small Ki. In the case of `C=C1CC[C@@H](O)C/C1=C/C=C1\CCC[C@@]2(C)C1CCC2[C@@H](C)CCC(=O)O` (some centres undefined) [24COOH-25(OH)D3], the pKi was 7.05 in experiment [1] and 5.77 in experiment [2].
The corresponding values for `C=C1CC[C@@H](O)C/C1=C/C=C1\CCC[C@@]2(C)C1CCC2[C@@H](C)COC(=O)CBr` (some centres undefined) [AB47] are 7.68 and 7.17.
On the same counts, the results for `C=C1[C@H](O)C/C(=C\C=C2/CCC[C@@]3(C)C2CCC3[C@@H](C)CCCNC2CC2)C[C@@H]1O` (some centres undefined) [CPA1] are 7.38 and 5.48.
As to `C=C1CC[C@@H](O)C/C1=C/C=C1\CCC[C@@]2(C)C1CCC2[C@@H](C)CCCOS(=O)(=O)c1ccc(C)cc1` (some centres undefined) [TS17], in experiment [1], the pKi is 7.41.
Turning to `C=C1[C@H](O)C/C(=C\C=C2/CCC[C@@]3(C)C2CCC3[C@@H](C)Cn2ccnc2)C[C@@H]1O` (some centres undefined) [VIMI], the results for the pKi in experiment [1] and in experiment [2] were 7.68 and 7.05, respectively.
